Data as given in US20140088006A1, “Stem Cell Mobilization and Tissue Repair and Regeneration” (Wellstat Therapeutics Corporation, priority 2011, published 2014).
“And” between values parts separate entries of the source, which are not always exact repeats. Equal entries are not always repeated. No end group written: not given here.

Assays:
[1] = test system: streptozotocin-induced diabetic mice; experiment: STZ diabetes model; format: in vivo, C57BL/6 female mice
Procedure: In order to look at the ability of Compound X mobilized stem cells to mediate tissue regeneration in vivo subcutaneous injections of 250 μg/kg of Compound X were compared with the ability of Compound X treated bone marrow cells to regenerate pancreas in a streptozoticin-induced diabetic model. Streptozotocin (STZ) is an antibiotic that preferentially kills the insulin secreting beta cells in pancreas. STZ-induced diabetes is a widely used model of pancreatic insufficiency.
Streptozotocin was dissolved and diluted into citric acid buffer (pH 4.5) immediately before injections. Drinking water and food were removed for 6 hours from 8-week old C57BL/6 female mice (Charles River) before mice were given a single intraperitoneal dose of 150 mg/kg STZ (Day −4). Blood for glucose determination was obtained from the tail vein four days post STZ. Blood glucose was measured by using an Elite glucometer (Bayer). Mice were considered diabetic if their blood glucose was >300 mg/dL. Mice showing >300 mg/dL blood glucose were randomized and divided into 5 groups of 10 mice (day 0). […]
After 96 hours of expansion, cells were harvested and processed for fluorescence activated cell sorting (FACS). […] Stained cells were excited with laser 2 (488 nm) and fluorescence emission was detected using the following optical filters, FL-3 (PerCP-Cy5.5) 695/BP40, FL-2 (phycoerythrin) 585/BP42 and FL-1 (FITC) 530/BP30. […]

[2] = test system: peripheral blood cells; experiment: FACS phenotype of peripheral blood cells after single subcutaneous injection; format: in vivo, C57Bl6 mice; settings: for Phenotype Lin−/Sca-1+ / Phenotype Lin−/Sca-1−: mononuclear cells; for Phenotype CD19+ / Phenotype Gr-1 High / Phenotype Gr-1 Low: individual mice
Procedure: C57Bl6 male mice, from 8 weeks to 4 month of age, from Harlan were used. […] 20 μl of blood was removed from each tube for WBC counts;
200 μl of blood was used for FACS analysis of cells phenotypes: briefly 50 μl of blood was transferred to a 15 ml polypropylene tube containing 1 ml ACK lysis buffer and the tubes left at room temperature for 6 minutes. 50 μl of a 1:50 dilution of Fc block (Pharmingen 01241A) along with 2 ul of anti-CD19FITC (Pharmingen 09654A) and 2 μl of anti-Gr-1PE (Pharmingen 01215A) was added and the tubes left at room temperature for 30 minutes protected from light. The cells were washed with 3 ml FACS buffer, resuspended in 300 μl FACS buffer and kept on ice, protected from light until acquired on the FACSCalibur.
For flow cytometry analysis the blood was stained with antibodies and a phenotype determined by FACS as described before. In addition to the whole blood FACS phenotyping, Ficolled blood was also stained to monitor the Lin−/Sca+ phenotype. The cells were washed with 3 ml FACS buffer, resuspended in 300 μl FACS buffer and kept on ice, protected from light until acquired on the FACSCalibur

[3] = test system: white blood cells in peripheral blood; experiment: White blood cell count after 4 daily injections of G-CSF and Compound X; format: in vivo, mice; settings: 5 μg/mouse each agent s.c. daily for 4 days, pooled blood
Procedure: Compound X and Neupogen (rG-CSF Amgen, lot# P043601) were diluted in PBS. Mice received subcutaneous injections of PBS, Compound X (5 μg/mouse), G-CSF (5 μg/mouse) or Compound X (5 μg/mouse)+G-CSF (5 μg/mouse) for four consecutive days. On the last day of injections, 1 hour post injections, blood was collected through the orbital sinus with heparinized capillary tubes. Blood was pooled from 3 mice/group and white blood cell counts were obtained. Mononuclear cells were isolated by density gradient separation from pooled blood. Cells were washed, counted and plated at 100,000 per dish (5 dishes/group) for CFU-mix and CFU-GM colonies. Blood was also collected and processed on day 8 for colony assay. Results are shown in Tables 10, 11, and 12 and in FIG. 5.

[4] = test system: full-thickness cutaneous wounds; experiment: Excisional wound healing model in db/db mice; format: in vivo; settings: i.v. 5 mg/kg daily for 4 days, Day 4

FPHFDLSHGSAQV [Compound X, tridecapeptide that acts on stem cells]
Survival of STZ treated mice ([1]; s.c. 250 μg/kg for 5 consecutive days for 3 weeks, STZ 150 mg/kg): 100%
mice with substantial weight loss ([1]; s.c. 250 μg/kg stem cell mobilizing doses): No mice
Phenotype Lin−/Sca-1+ ([2]; 50 μg/kg, 1-hour): 0.4%
Phenotype Lin−/Sca-1− ([2]; 50 μg/kg, 1-hour): 0.8%
Phenotype Lin−/Sca-1+ ([2]; 50 μg/kg, 30-min): 0.5%
Phenotype Lin−/Sca-1− ([2]; 50 μg/kg, 30-min): 1.0%
Phenotype Lin−/Sca-1+ ([2]; 250 μg/kg, 1-hour): 0.8%
Phenotype Lin−/Sca-1− ([2]; 250 μg/kg, 1-hour): 1.1%
Phenotype Lin−/Sca-1+ ([2]; 250 μg/kg, 30-min): 0.6%
Phenotype Lin−/Sca-1− ([2]; 250 μg/kg, 30-min): 1.1%
Phenotype CD19+ ([2]; s.c. 50 μg/kg, 1 hr): 38.3% and 41.0% and 29.6%
Phenotype Gr-1 High ([2]; s.c. 50 μg/kg, 1 hr): 26.0% and 27.7% and 29.4%
Phenotype Gr-1 Low ([2]; s.c. 50 μg/kg, 1 hr): 3.5% (2×) and 7.0%
Phenotype CD19+ ([2]; s.c. 50 μg/kg, 4 hr): 33.9% and 40.9% and 29.1%
Phenotype Gr-1 High ([2]; s.c. 50 μg/kg, 4 hr): 25.0% and 16.7% and 29.1%
Phenotype Gr-1 Low ([2]; s.c. 50 μg/kg, 4 hr): 6.2% and 7.6% and 5.3%
Phenotype CD19+ ([2]; s.c. 250 μg/kg, 1 hr): 14.8% and 4.8% and 14.5%
Phenotype Gr-1 High ([2]; s.c. 250 μg/kg, 1 hr): 55.2% and 18.7% and 6.8%
Phenotype Gr-1 Low ([2]; s.c. 250 μg/kg, 1 hr): 3.5% and 2.1% and 2.4%
Phenotype CD19+ ([2]; s.c. 250 μg/kg, 4 hr): 46.7% and 48.5% and 46.6%
Phenotype Gr-1 High ([2]; s.c. 250 μg/kg, 4 hr): 16.1% and 12.9% and 11.7%
Phenotype Gr-1 Low ([2]; s.c. 250 μg/kg, 4 hr): 5.1% and 5.5% and 6.6%
mobilization of lineage negative progenitors ([2]; s.c. 50 or 250 μg/kg, 30 min and 1 hr): did not have such an effect
White Blood Cell counts: Cell Count ([3]; Day 4, 1 hour post injection): 7.3 ×10^6
White Blood Cell counts: Cell Count ([3]; Day 8): 6.1 ×10^6
Wound healing rate, Average [4]: 5.14%
Wound healing rate ([4]; individual mice, 5 mg/kg): 3.89% and 4.69% and 2.42% and 8.09% and 6.62%
